Measurements as given in patent US12447153B2, “HER2 mutation inhibitors” (Array BioPharma Inc., priority 2021, dated 2025).

How the values were obtained:
BCRP = BCRP (Homo sapiens (Human), UniProt Q9UNQ0); assay: BCRP MDCKII efflux assay (Assay 7); assay type: in vitro ADME; conditions: dog; efflux ratio Papp(B-A)/Papp(A-B), BCRP MDCKII cells; read-out: Assay 7 Pe Ratio
Protocol: Assay conditions included with and without the BCRP-specific inhibitor, KO143, at a concentration of 0.3 μM to ascertain the contribution of BCRP to the efflux value of the test compound.
Final organic concentration in the assay was 1%.

ErbB2 WT = ErbB2 WT (Homo sapiens (Human), UniProt P04626); assay: ErbB Enzyme Assay (HTRF KinEASE-TK), Assay 2; assay type: biochemical
[1] = target: ErbB2 with Exon 20 YVMA insertion (HER2-YVMA) (Homo sapiens (Human), UniProt P04626, INS775YVMA); assay: Cellular Phosphorylation Assay, Assay 4 (constitutive ErbB2 phosphorylation, NIH 3T3 cells); assay type: cell-based
ErbB2 with Exon 20 YVMA insertion (HER2-YVMA), sequence (P04626 other isoform, or with tags, fused parts or gaps ins YVMA behind 775): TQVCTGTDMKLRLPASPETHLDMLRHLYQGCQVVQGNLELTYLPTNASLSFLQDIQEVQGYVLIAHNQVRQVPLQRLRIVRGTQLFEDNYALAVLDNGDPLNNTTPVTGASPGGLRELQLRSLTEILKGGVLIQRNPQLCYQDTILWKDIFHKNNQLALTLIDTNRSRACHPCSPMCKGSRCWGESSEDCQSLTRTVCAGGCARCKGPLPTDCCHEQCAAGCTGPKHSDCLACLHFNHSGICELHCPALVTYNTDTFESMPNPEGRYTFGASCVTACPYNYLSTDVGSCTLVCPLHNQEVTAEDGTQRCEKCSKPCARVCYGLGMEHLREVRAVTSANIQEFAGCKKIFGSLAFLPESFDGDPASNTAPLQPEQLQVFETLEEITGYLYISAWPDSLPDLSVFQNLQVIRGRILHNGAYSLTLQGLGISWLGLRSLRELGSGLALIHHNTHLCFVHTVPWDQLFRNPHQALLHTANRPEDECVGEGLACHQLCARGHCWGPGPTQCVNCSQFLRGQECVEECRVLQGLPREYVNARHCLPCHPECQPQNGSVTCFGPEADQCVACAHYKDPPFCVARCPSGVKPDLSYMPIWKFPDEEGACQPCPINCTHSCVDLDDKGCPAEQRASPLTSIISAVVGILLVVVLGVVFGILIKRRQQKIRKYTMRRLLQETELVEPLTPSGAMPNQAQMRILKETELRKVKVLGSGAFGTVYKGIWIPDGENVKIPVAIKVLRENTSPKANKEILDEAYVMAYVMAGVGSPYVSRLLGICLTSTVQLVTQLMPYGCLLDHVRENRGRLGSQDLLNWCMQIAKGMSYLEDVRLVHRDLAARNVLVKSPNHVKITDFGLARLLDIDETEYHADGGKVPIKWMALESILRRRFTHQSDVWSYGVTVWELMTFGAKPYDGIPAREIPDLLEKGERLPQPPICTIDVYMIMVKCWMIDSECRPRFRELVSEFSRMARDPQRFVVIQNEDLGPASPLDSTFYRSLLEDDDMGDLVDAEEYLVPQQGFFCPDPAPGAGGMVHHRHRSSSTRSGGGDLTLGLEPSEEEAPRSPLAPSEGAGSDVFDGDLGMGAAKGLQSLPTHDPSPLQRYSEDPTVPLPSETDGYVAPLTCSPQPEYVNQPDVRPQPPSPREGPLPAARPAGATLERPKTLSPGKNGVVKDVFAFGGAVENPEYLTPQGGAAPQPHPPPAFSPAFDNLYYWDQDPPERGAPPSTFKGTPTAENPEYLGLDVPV

EGFR wild type (EGFR WT) = EGFR wild type (EGFR WT) (Homo sapiens (Human), UniProt P00533); assay: Cellular Phosphorylation Assay, Assay 5 (EGF-stimulated EGFR phosphorylation, NIH 3T3 cells); assay type: cell-based
EGFR wild type (EGFR WT), sequence (P00533 25-1210): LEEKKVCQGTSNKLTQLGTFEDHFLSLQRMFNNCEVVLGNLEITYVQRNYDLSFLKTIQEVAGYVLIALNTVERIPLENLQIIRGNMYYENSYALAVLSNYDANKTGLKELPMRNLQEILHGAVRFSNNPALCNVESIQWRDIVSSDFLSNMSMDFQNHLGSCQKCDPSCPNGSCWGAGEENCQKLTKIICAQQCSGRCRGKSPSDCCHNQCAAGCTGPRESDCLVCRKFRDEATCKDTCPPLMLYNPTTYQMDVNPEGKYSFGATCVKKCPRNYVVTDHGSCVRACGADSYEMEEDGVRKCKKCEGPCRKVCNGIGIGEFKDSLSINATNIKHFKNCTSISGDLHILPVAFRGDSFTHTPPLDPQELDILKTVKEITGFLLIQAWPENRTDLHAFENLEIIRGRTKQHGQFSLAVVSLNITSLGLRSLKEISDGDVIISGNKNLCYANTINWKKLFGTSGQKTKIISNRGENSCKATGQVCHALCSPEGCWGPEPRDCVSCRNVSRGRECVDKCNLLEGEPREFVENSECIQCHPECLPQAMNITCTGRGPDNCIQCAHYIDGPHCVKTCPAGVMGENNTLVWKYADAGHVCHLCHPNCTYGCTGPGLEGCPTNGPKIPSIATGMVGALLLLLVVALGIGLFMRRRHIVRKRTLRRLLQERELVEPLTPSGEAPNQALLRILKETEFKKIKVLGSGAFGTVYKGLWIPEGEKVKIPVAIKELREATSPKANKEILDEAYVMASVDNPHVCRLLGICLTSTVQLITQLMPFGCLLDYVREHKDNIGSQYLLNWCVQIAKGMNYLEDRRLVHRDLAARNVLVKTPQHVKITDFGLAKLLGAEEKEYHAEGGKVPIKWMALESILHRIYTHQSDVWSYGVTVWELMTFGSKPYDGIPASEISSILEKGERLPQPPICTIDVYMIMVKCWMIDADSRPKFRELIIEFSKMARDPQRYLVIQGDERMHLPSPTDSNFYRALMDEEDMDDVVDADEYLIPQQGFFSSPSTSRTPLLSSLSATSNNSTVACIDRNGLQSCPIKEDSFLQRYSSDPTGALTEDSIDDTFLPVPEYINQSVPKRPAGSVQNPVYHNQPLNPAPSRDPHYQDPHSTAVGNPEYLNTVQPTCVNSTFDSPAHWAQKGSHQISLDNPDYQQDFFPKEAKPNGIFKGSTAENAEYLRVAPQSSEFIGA

EGFR = EGFR (Homo sapiens (Human), UniProt P00533); assay: ErbB Enzyme Assay (HTRF KinEASE-TK), Assay 3; assay type: biochemical
EGFR, sequence (P00533 25-1210): as above

[2] = cellular ErbB2 YVMA phosphorylation
[3] = cellular EGFR WT phosphorylation, EGF-stimulated
[4] = EGF-stimulated EGFR WT phosphorylation

BCRP, sequence (Q9UNQ0 whole entry): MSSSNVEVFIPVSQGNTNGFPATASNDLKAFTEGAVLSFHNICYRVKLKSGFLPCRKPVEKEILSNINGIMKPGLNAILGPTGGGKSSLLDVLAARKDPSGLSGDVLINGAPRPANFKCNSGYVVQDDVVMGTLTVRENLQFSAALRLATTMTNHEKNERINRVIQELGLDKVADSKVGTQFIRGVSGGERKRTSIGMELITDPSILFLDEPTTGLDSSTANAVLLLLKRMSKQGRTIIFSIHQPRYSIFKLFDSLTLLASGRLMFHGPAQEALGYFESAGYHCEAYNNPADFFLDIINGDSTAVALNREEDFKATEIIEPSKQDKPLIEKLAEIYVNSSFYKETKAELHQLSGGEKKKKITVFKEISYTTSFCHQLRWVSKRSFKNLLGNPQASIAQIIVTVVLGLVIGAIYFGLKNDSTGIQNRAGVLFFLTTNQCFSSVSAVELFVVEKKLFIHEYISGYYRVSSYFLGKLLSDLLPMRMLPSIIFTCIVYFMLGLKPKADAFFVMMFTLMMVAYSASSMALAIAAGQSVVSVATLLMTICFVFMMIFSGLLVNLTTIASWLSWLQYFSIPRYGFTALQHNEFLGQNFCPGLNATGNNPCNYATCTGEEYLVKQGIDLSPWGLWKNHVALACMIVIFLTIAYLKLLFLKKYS

Row | efflux ratio at 2 h, 1 µM (BCRP) | IC50 (ErbB2 WT; ErbB2 WT enzyme assay) [nM] | IC50 [1, 2] [nM] | IC50 (EGFR wild type (EGFR WT); [3]) [nM] | IC50 (EGFR; EGFR enzyme assay) [nM] | IC50 (ErbB2 WT; ErbB2 WT enzyme) [nM] | IC50 ([1]; ErbB2 YVMA phosphorylation) [nM] | IC50 (EGFR wild type (EGFR WT); [4]) [nM] | IC50 (EGFR; EGFR enzyme) [nM] | SMILES
1 | 15.6 | 75.5 | 71 | ≥ 5000 | ≥ 10000 | – | – | – | – | C=CC(=O)N1C[C@H]2C[C@@H]1CN(c1ccc3ncnc(Nc4cc(Cl)c(Oc5ccn6ncnc6c5)cc4F)c3n1)C2 [Example 292]
2 | 13.4 | 31.6 | 8.8 | ≥ 5000 | ≥ 10000 | – | – | – | – | C=CC(=O)N1CCN(c2ccc3ncnc(Nc4cc(C)c(Oc5cnc6c(c5)ncn6C)cc4F)c3n2)CC12CC2 [Example 354]
3 | 9.5 | 12.5 | 17.5 | 488 | 979 | – | – | – | – | C=CC(=O)N1CC[C@H]2C[C@H](c3ccc4ncnc(Nc5ccc(Oc6ccn7ncnc7c6)c(C)c5)c4n3)C[C@H]21 [Example 383]
4 | 8.7 | 50.4 | 21.1 | 1890 | 2090 | – | – | – | – | C=CC(=O)N1CC(c2ccc3ncnc(Nc4ccc(Oc5ccn6ncnc6c5)c(C)c4F)c3n2)C1 [Example 280]
5 | 4.4 | 11 | 10.5 | 778 | 1340 | – | – | – | – | C=CC(=O)N1[C@H](C)CN(c2ccc3ncnc(Nc4ccc(Oc5ccn6ncnc6c5)c(Cl)c4F)c3n2)C[C@@H]1C [Example 288]
6 | 14.4 | 47.2 | 21 | ≥ 5000 | 3370 | – | – | – | – | C=CC(=O)N1[C@H](C)CN(c2ccc3ncnc(Nc4ccc(Oc5cc(F)c6c(c5)ncn6C)c(C)c4)c3n2)C[C@@H]1C [Example 359]
7 | 13.7 | 19.5 | 17.2 | 4550 | 1640 | – | – | – | – | C=CC(=O)N1C[C@H]2C[C@@H]1[C@H](c1ccc3ncnc(Nc4ccc(Oc5ccn6ncnc6c5)c(C)c4)c3n1)C2 [Example 405]
8 | 11.8 | 156 | 33.8 | ≥ 5000 | 4780 | – | – | – | – | C=CC(=O)N1C[C@@H]2CC(c3ccc4ncnc(Nc5ccc(Oc6ccn7ncnc7c6)c(C)c5F)c4n3)C[C@H]1C2 (some centres unmarked) [Example 268]
9 | 13.8 | 16.9 | 11.6 | 1670 | 757 | – | – | – | – | C=CC(=O)N1C[C@H]2C[C@@H]1CN(c1ccc3ncnc(Nc4ccc(Oc5ccn6ncnc6c5)c(Cl)c4F)c3n1)C2 [Example 304]
10 | 4.3 | – | – | – | – | 15.8 | 36.7 | ≥ 5000 | 2580 | C=CC(=O)N1CCC(c2ccc3ncnc(Nc4ccc(Oc5ccc6c(c5)ncn6C)c(C)c4F)c3n2)CC1 [Example 146, 1-(4-(4-((2-fluoro-3-methyl-4-((1-methyl-1H-benzo[d]imidazol-5-yl)oxy)phenyl)amino)pyrido[3,2-d]pyrimidin-6-yl)piperidin-1-yl)prop-2-en-1-one]

More lines, now with the values behind:

Row | SMILES | efflux ratio at 2 h, 1 µM (BCRP) | IC50 (ErbB2 WT; ErbB2 WT enzyme assay) [nM] | IC50 [1, 2] [nM] | IC50 (EGFR wild type (EGFR WT); [3]) [nM] | IC50 (EGFR; EGFR enzyme assay) [nM] | IC50 (ErbB2 WT; ErbB2 WT enzyme) [nM] | IC50 ([1]; ErbB2 YVMA phosphorylation) [nM] | IC50 (EGFR wild type (EGFR WT); [4]) [nM] | IC50 (EGFR; EGFR enzyme) [nM]
11 | C=CC(=O)N1C2CC1CN(c1ccc3ncnc(Nc4cc(C)c(Oc5ccc6c(c5)ncn6C)cc4F)c3n1)C2 [Example 48, 1-(3-(4-((2-fluoro-5-methyl-4-((1-methyl-1H-benzo[d]imidazol-5-yl)oxy)phenyl)amino)pyrido[3,2-d]pyrimidin-6-yl)-3,6-diazabicyclo[3.1.1]heptan-6-yl)prop-2-en-1-one] | 10.2 | – | – | – | – | 264 | 16.6 | ≥ 5000 | ≥ 10000
12 | C=CC(=O)N1CC[C@H]2CN(c3ccc4ncnc(Nc5cc(C)c(Oc6ccn7ncnc7c6)cc5F)c4n3)C[C@H]21 [Example 26, 1-((3aS,6aS)-5-(4-((4-([1,2,4]triazolo[1,5-a]pyridin-7-yloxy)-2-fluoro-5-methylphenyl)amino)pyrido[3,2-d]pyrimidin-6-yl)hexahydropyrrolo[3,4-b]pyrrol-1(2H)-yl)prop-2-en-1-one] | 8.3 | – | – | – | – | 121 | 20.4 | ≥ 5000 | ≥ 10000
13 | C=CC(=O)N1CC[C@@H](c2ccc3ncnc(Nc4ccc(Oc5ccc6c(c5)ncn6C)c(C)c4F)c3n2)C1 (racemic) [Example 131, rac-(R)-1-(3-(4-((2-fluoro-3-methyl-4-((1-methyl-1H-benzo[d]imidazol-5-yl)oxy)phenyl)amino)pyrido[3,2-d]pyrimidin-6-yl)pyrrolidin-1-yl)prop-2-en-1-one] | 6.4 | – | – | – | – | 55.9 | 9.6 | 4760 | 2160
14 | C=CC(=O)N1C2CC1CN(c1ccc3ncnc(Nc4ccc(Oc5ccn6ncnc6c5)c(C)c4F)c3n1)C2 [Example 47, 1-(3-(4-((4-([1,2,4]triazolo[1,5-a]pyridin-7-yloxy)-2-fluoro-3-methylphenyl)amino)pyrido[3,2-d]pyrimidin-6-yl)-3,6-diazabicyclo[3.1.1]heptan-6-yl)prop-2-en-1-one] | 9.6 | – | – | – | – | 60.9 | 13.7 | 2130 | 3720
15 | C=CC(=O)N1CCCN(c2ccc3ncnc(Nc4ccc(Oc5ccc6c(c5)ncn6C)c(C)c4)c3n2)CC1 [Example 108, 1-(4-(4-((3-methyl-4-((1-methyl-1H-benzo[d]imidazol-5-yl)oxy)phenyl)amino)pyrido[3,2-d]pyrimidin-6-yl)-1,4-diazepan-1-yl)prop-2-en-1-one] | 30.1 | – | – | – | – | 29.4 | 7.4 | ≥ 5000 | ≥ 10000
16 | C=CC(=O)N1CCN(c2ccc3ncnc(Nc4ccc(Oc5ccn6ncnc6c5)c(C)c4)c3n2)CC1(C)C [Example 77, 1-(4-(4-((4-([1,2,4]triazolo[1,5-a]pyridin-7-yloxy)-3-methylphenyl)amino)pyrido[3,2-d]pyrimidin-6-yl)-2,2-dimethylpiperazin-1-yl)prop-2-en-1-one] | 11.6 | – | – | – | – | 9 | 9.3 | 874 | 2550
17 | C=CC(=O)N1CCC(Sc2ccc3ncnc(Nc4ccc(Oc5ccc6c(c5)ncn6C)c(C)c4)c3n2)CC1 [Example 59, 1-(4-((4-((3-methyl-4-((1-methyl-1H-benzo[d]imidazol-5-yl)oxy)phenyl)amino)pyrido[3,2-d]pyrimidin-6-yl)thio)piperidin-1-yl)prop-2-en-1-one] | 10.8 | – | – | – | – | 25.4 | 19 | ≥ 5000 | 534
18 | C=CC(=O)N1[C@@H]2CC[C@H]1C[C@@H](c1ccc3ncnc(Nc4ccc(Oc5cnc6c(c5)ncn6C)c(C)c4)c3n1)C2 [Example 219, 1-((1R,3r,5S)-3-(4-((3-methyl-4-((3-methyl-3H-imidazo[4,5-b]pyridin-6-yl)oxy)phenyl)amino)pyrido[3,2-d]pyrimidin-6-yl)-8-azabicyclo[3.2.1]octan-8-yl)prop-2-en-1-one] | 9.3 | – | – | – | – | 111 | 20.1 | ≥ 5000 | 3660
19 | C=CC(=O)N1CCCN(c2ccc3ncnc(Nc4ccc(Oc5cnc6c(c5)ncn6C)c(Cl)c4)c3n2)CC1 [Example 113, 1-(4-(4-((3-chloro-4-((3-methyl-3H-imidazo[4,5-b]pyridin-6-yl)oxy)phenyl)amino)pyrido[3,2-d]pyrimidin-6-yl)-1,4-diazepan-1-yl)prop-2-en-1-one] | 37.5 | – | – | – | – | 184 | 30.2 | ≥ 5000 | ≥ 10000
